Source: patent EP2949653A1, “ISOXAZOLE DERIVATIVES AS LEUKOTRIENE BIOSYNTHESIS INHIBITORS” (Banoglu, Erden, priority 2014, dated 2015)
Like-named read-outs stand apart in the source and are kept apart here.

How the values were obtained:
purified 5-LO [1] = biological target: T1, purified 5-LO (Homo sapiens, UniProt P09917); details: literature value, Banoglu et al. Bioorg. Med. Chem. 2012, 20, 3728; read-out: IC50cell-free; cited from earlier work
T1 sequence (P09917 1-674): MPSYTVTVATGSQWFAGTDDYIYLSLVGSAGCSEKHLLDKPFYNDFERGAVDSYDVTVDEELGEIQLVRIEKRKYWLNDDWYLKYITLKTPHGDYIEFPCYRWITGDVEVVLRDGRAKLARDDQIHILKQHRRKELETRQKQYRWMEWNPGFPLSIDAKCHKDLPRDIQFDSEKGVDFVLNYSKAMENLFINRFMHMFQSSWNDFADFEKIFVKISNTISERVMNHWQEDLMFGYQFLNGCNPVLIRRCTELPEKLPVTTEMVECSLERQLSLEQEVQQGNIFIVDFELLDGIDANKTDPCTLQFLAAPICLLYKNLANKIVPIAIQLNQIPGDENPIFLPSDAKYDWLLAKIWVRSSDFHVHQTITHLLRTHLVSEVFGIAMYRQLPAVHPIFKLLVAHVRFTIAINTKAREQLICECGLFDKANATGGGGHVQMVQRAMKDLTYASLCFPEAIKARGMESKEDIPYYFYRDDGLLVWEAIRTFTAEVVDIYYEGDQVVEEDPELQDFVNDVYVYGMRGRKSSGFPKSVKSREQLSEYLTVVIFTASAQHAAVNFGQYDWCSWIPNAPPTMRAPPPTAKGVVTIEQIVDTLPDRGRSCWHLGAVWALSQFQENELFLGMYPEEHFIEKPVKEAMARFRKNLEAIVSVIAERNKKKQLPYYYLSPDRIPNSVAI

[2] = system: 5-LO mediated product formation; assay: 5-LO mediated product formation in intact neutrophils stimulated with A23187 (cell-based); design: species or system human; details: for IC50: Neutrophil, intact human neutrophils stimulated with 2.5 µM A23187, mean ± SE, n = 3-4, read-out: Inhibition of purified 5-LO activity IC50 (µM) cell based; for activity at 1 µM / activity at 10 µM: PMNL, human neutrophils, 2.5 µM A23187, means ± SE, n = 3-6; for activity at 1 µM: remaining activity at 1 µM inhibitor, read-out: 5-LO mediated product formation in intact neutrophils (PMNL) (% of control) at 1 µM; for activity at 10 µM: remaining activity at 10 µM inhibitor, read-out: 5-LO mediated product formation in intact neutrophils (PMNL) (% of control) at 10 µM
Procedure: (§1) Cell based and cell-free assays carried out in biological studies, immunofluorescence microscopy analysis and zymosan-induced peritonitis in mice are performed as described hereinabove (Pegola, C. and et al., British J. Pharmacology, 2014, D01:10.1111/bph.12625). In the cell based assays (intact neutrophils or monocytes), 5-LO mediated product formation is started, after pre-incubation with test compounds (or control DMSO) for 15 min. at 37 °C, with addition of Ca-ionophore A23187 (2.5 µM) to the fresh 5 x 10^6 neutrophils or monocytes suspended in 1 ml of PGC buffer (phosphate buffered saline (PBS) solution containing 1 mg ml^-1 glucose and 1mM CaCl2, pH 7.4). After the incubation for 10 min. at 37 °C, the reaction is ended with addition of 1 ml of methanol, and 30 µL 1 N HCl, 200 ng prostaglandin B1 and 500 µL PBS are added to the mixture. In cell-free assays (isolated 5-LO and cell homogenates), human recombinant 5-LO protein or 40,000g supernatant is added to 1 ml of 5-LO reaction mixture (PBS, pH 7.4, 1 mM EDTA, 1 mM ATP), and then incubated with test compounds (or control DMSO) for 10 min. at 4°C, heated to 37 °C and 2 mM CaCl2 as well as AA at certain concentrations are added. The reaction is ended as described for the cell-based assays. Resulting 5-LO mediated products are extracted and analysed by the known method of high pressure liquid chromatography (HPLC) (Pergola, C. Proc Natl. Acad. Sci. U.S.A. 2008, 105, 19881). 5-LO mediated product formation (LTB4 and all trans isomers, and 5 (S)-hydro(pero)xy-6-trans-8, 11, 14-cis-eicosatetraenoic acid, 5-H(p)ETE) is expressed as ng per 10^6 cell. Cysteinyl-LTs have not been analyzed because that the amount of C4, D4 and E4 and LTB4 oxidation products are below the detection limit.
(§2) Compounds were tested in intact human neutrophils stimulated with 2.5 µM A23187 under cell based conditions and on purified 5-LO under cell free conditions. ^aData are given as remaining activity as a percentage of control (100%) at 10 µM or 1 µM inhibitor concentrations (means ± SE, n = 3-6).
Compound 9hj inhibited 5-LO mediated product formation with IC50 of 60 nM in human neutrophils. Neutrophils are stimulated with Ca-ionophore A23187 (2.5 µM), without the addition of exogenous arachidonic acid (AA), after pre-incubation with 9hj or vehicle (0.1 % DMSO). 100% controls correspond to 275.7 ng mL^-1 of 5-LO mediated products (Figure 1).
100% controls correspond to 328.97 ng mL^-1 of 5-LO mediated products.

purified 5-LO [3] = biological target: T1, purified 5-LO; assay: Purified / human recombinant 5-LO activity (cell-free); type: biochemical; details: purified 5-LO under cell free conditions; mean ± SE, n = 3-4; read-out: Inhibition of purified 5-LO activity IC50 (µM) cell-free
Procedure: as §1, §2
9hj was added 15 min before addition of 2 mM Ca^2+ plus 3 µM, 10 µM and 30 µM AA. 100% controls correspond to 200.35 ng mL^-1 for 3 µM AA, 514.36 ng mL^-1 for 10 µM AA and 537.73 ng mL^-1 for 30 µM AA.

[4] = system: 5-LO mediated product formation; details: literature value, Banoglu et al. Bioorg. Med. Chem. 2012, 20, 3728; read-out: IC50PMNL (cell-based assay); cited from earlier work
purified 5-LO [5] = biological target: T1, purified 5-LO; assay: Purified / human recombinant 5-LO activity (cell-free); type: biochemical; details: remaining 5-LO activity (percentage of uninhibited control) at 30 µM test compound

| Structure (SMILES) | IC50 (purified 5-LO [1]) [nM] | IC50 [2] [µM] | activity at 1 µM [2] [%] | activity at 10 µM [2] [%] | IC50 (purified 5-LO [3]) [µM] | IC50 [4] [nM] | remaining activity at 30 µM (purified 5-LO [5]) [%] |
| --- | --- | --- | --- | --- | --- | --- | --- |
| Cc1ccccc1COc1ccc(-c2onc(C)c2-c2ccc(Cl)cc2)c(O)c1 [Compound A, reference compound] | 1900 | 4.42 ± 1.13 | 66.7 ± 11.5 | 3 ± 0.7 | 1.9 ± 0.46 | 4400 | – |
| Cc1cc(OCc2ccccc2C(F)(F)F)ccc1-c1onc(C(=O)O)c1-c1ccc(Cl)cc1 [Compound 9fk, 4-(4-Chlorophenyl)-5-(2-methyl-4-((2-(trifluoromethyl)benzyl)oxy)phenyl)isoxazole-3-carboxylic acid] | – | 0.82 ± 0.17 | 44 ± 10.3 | 3.48 ± 3.05 | > 30 | – | 62 |
| Cc1cc(OCc2ccccn2)ccc1-c1onc(C(=O)O)c1-c1ccc(Cl)cc1 [Compound 9gk, 4-(4-Chlorophenyl)-5-(2-methyl-4-(pyridin-2-ylmethoxy)phenyl)isoxazole-3-carboxylic acid] | – | 1.81 ± 0.11 | 73.2 ± 7.42 | 0.45 ± 0.45 | > 30 | – | 73 |
